Experimental data: US9353132B2, “Boron-based 4-hydroxytamoxifen and endoxifen prodrugs as treatment for breast cancer” (XAVIER UNIVERSITY OF LOUISIANA, priority 2012, dated 2016)
pIC50: −log10 of the molar value. Each block holds one compound with its values, some of them ahead of it.

Columns and labels:
MCF-7 cells [1] = test: Oxidative conversion of prodrug to 4-OHT in media after incubation with MCF-7 cells (HPLC-MS/MS); format: in vitro ADME, human; conditions: LC-MS/MS
Experimental: (§1) To determine if the actions of the prodrugs are by means of biotransformation into the compound 4-hydroxytamoxifen, we analyzed the concentrations of the prodrugs and 4-hydroxytamoxifen in the media containing breast cancer cells using an HPLC-MS/MS technique.
(§2) Using HPLC coupled to a linear trap mass spectrometer, the prodrugs and their active product, 4-OHT were separated, identified, and quantified.
(§3) The relative peak areas were measured at 30.4% for prodrug 3 and 69.6% for 4-OHT (FIG. 5 panel A).

T47D cells [2] = test: Cell survival/growth inhibition assay in ER+ T47D breast cancer cells; format: cell-based; conditions: for pIC50: dose-response, T47D cells; for inhibition at 1 µM / inhibition at 0.1 µM: T47D
Text: The T47D cell line is also an ER positive control cell line.
To test if the prodrugs can inhibit growth in another breast cancer cell line that also expresses the estrogen receptor, T47D cells were used.

MCF-7 cell culture = test: Kinetic stability of prodrug (conversion to 4-OHT) in MCF-7 cell culture; format: in vitro ADME, human; conditions: 0 to 144 hours, regression of prodrug concentration relative to 4-OHT
Experimental: (§4) A kinetic study on the stability of the prodrugs was performed. In the study, the relative concentration of a prodrug to 4-OHT was determined at different time points that ranged from 0 hour to 144 hours (6 days).

T47D cells [3] = test: Oxidative conversion of prodrug to 4-OHT in media after incubation with T47D cells (HPLC-MS/MS); format: in vitro ADME; conditions: LC-MS/MS
Experimental: as §1, §2, §3

MCF-7 cells [4] = test: Cell survival/growth inhibition assay in ER+ MCF-7 breast cancer cells; format: cell-based, human; conditions: for inhibition at 1 µM / inhibition at 0.1 µM: MCF7
Text: MCF-7 is a human breast adenocarcinoma cell line commonly accepted in the art as useful for in vitro breast cancer studies because it has retained several ideal characteristics particular to mammary epithelium. These characteristics include the ability to process estrogen (in the form of estradiol) via estrogen receptors in the cell cytoplasm. This makes the MCF-7 cell line an estrogen receptor (ER) positive control cell line.
To test if the prodrugs inhibit breast cancer cell growth and proliferation, cell survival assays were conducted.

[5] = tested on: estrogen-dependent cell proliferation; conditions: cited from earlier work
[6] = Kinetic stability of prodrug (conversion to 4-OHT) in MCF-7 cell culture; format: in vitro ADME, human; conditions: human, MCF-7 cell culture; 0 to 144 hours, regression of prodrug concentration relative to 4-OHT
Experimental: as §4

[7] = Homo sapiens, MCF7, dose-response, MCF-7 cells

Compound: 4-hydroxytamoxifen [Prodrug 4-OHT]
potency relative to tamoxifen in inhibiting estrogen-dependent cell proliferation [5]: 30- to 100 fold

Compound: CC/C(=C(\c1ccccc1)c1ccc(OCCN(C)C)cc1)c1ccccc1 [Tamoxifen]
growth inhibition of T47D cells (T47D cells [2]; 10^−6 M): 48% | inhibition at 1 µM (T47D cells [2]; Homo sapiens, 10^−6 M): 46% | inhibition at 0.1 µM (T47D cells [2]; Homo sapiens, 10^−7 M): 39% | inhibition at 1 µM (MCF-7 cells [4]; Homo sapiens, 10^−6 M): 52% | inhibition at 0.1 µM (MCF-7 cells [4]; Homo sapiens, 10^−7 M): 18%

Compound: CCC(=C(c1ccc(OCCNC)cc1)c1ccc(B(O)O)cc1)c1ccccc1 [Prodrug 11, (4-(1-(4-(2-(Methylamino)ethoxy)phenyl)-2-phenylbut-1-en-1-yl)phenyl)boronic acid]
inhibition at 1 µM (T47D cells [2]; Homo sapiens, 10^−6 M): 53% | inhibition at 0.1 µM (T47D cells [2]; Homo sapiens, 10^−7 M): 40% | pIC50 (T47D cells [2]; Homo sapiens): 6.72 | pIC50 (MCF-7 cells [4]; [7]): 7.59 | anti-proliferative efficacy compared to tamoxifen (MCF-7 cells [4]; MCF-7 cells): greater anti-proliferative efficacy than tamoxifen

Compound: CCC(=C(c1ccc(OCCN(C)C)cc1)c1ccc(B2OC(C)(C)C(C)(C)O2)cc1)c1ccccc1 [Prodrug 1, N,N-Dimethyl-2-(4-(2-phenyl-1-(4-(4,4,5,5-tetramethyl-1,3,2-dioxaborolan-2-yl)phenyl)but-1-en-1-yl)phenoxy)ethanamine]
inhibition at 1 µM (T47D cells [2]; Homo sapiens, 10^−6 M): 60% | inhibition at 0.1 µM (T47D cells [2]; Homo sapiens, 10^−7 M): 42% | pIC50 (T47D cells [2]; Homo sapiens): 6.84 | half-life [6]: 89 h | pIC50 (MCF-7 cells [4]; [7]): 6.82 | inhibition at 1 µM (MCF-7 cells [4]; Homo sapiens, 10^−6 M): 63% | inhibition at 0.1 µM (MCF-7 cells [4]; Homo sapiens, 10^−7 M): 52% | IC50 relative to tamoxifen (MCF-7 cells [4]; cell line not given, values match MCF-7): about 5 times lower | pIC50 (MCF-7 cells [4]; dose-response, MCF-7 cells, listed as Boron-4-OHT Prodrug (1)): 6.83

More lines, main results first:

% peak area of 4-OHT formed from prodrug (MCF-7 cells [1]): 81.6% | half-life of prodrug (conversion to 4-OHT) (MCF-7 cell culture): 84 h | % peak area of 4-OHT formed from prodrug (transformed into 4-OHT) (T47D cells [3]): 86.3%
Compound: CCC(=C(c1ccc(OCCN(C)C)cc1)c1ccc([B-](F)(F)F)cc1)c1ccccc1.[K+] [Prodrug 2, Potassium (4-(1-(4-(2-(dimethylamino)ethoxy)phenyl)-2-phenylbut-1-en-1-yl)phenyl)trifluoro boronate]
growth inhibition of T47D cells (T47D cells [2]; 10^−6 M): 50% | growth inhibition of T47D cells (T47D cells [2]; 10^−7 M): 38% | pIC50 (T47D cells [2]): 6.59 | growth inhibition of MCF-7 cells (MCF-7 cells [4]; 10^−6 M): 76% | growth inhibition of MCF-7 cells (MCF-7 cells [4]; 10^−7 M): 59% | pIC50 (MCF-7 cells [4]; dose-response, MCF-7 cells): 8.20 | pIC50 (MCF-7 cells [4]; dose-response, MCF-7 cells, listed as Boron-4-OHT Prodrug (2)): 8.20

relative peak area of remaining prodrug (MCF-7 cells [1]): 30.4% | half-life [6]: 96 h | % peak area of remaining prodrug (T47D cells [3]): 20.9%
Compound: CCC(=C(c1ccc(OCCN(C)C)cc1)c1ccc(B(O)O)cc1)c1ccccc1 [Prodrug 3, (4-(1-(4-(2-(Dimethylamino)ethoxy)phenyl)-2-phenylbut-1-en-1-yl)phenyl)boronic acid]
inhibition at 1 µM (T47D cells [2]; Homo sapiens, 10^−6 M): 54% | inhibition at 0.1 µM (T47D cells [2]; Homo sapiens, 10^−7 M): 44% | pIC50 (T47D cells [2]; Homo sapiens): 6.64 | pIC50 (MCF-7 cells [4]; [7]): 7.38 | inhibition at 1 µM (MCF-7 cells [4]; Homo sapiens, 10^−6 M): 75% | inhibition at 0.1 µM (MCF-7 cells [4]; Homo sapiens, 10^−7 M): 51%
